Patent publication US6737383B1, “Herbicidal oxadiazolidines” (priority 1999, dated 2004)

Columns and labels:
crabgrass = assay: Test B pre/postemergence crabgrass; assay type: in vivo, Digitaria sanguinalis
How it was run: (§1)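 Response is a visual 0-to-10 score relative to untreated plants, where 0 means no effect and 10 means complete control, taken twelve to sixteen days after application. Treatments went onto soil at planting and onto foliage of 1- to 4-leaf plants, using a surfactant-containing non-phytotoxic solvent.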

bedstraw = assay: Test B pre/postemergence bedstraw; assay type: in vivo, Galium aparine
How it was run: as §1

soybean = assay: Test B pre/postemergence soybean; assay type: in vivo, Glycine max
How it was run: as §1

smallflower flatsedge = assay: Test B flood test smallflower flatsedge; assay type: in vivo, Cyperus difformis
How it was run: (§2)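 Read-out is a visual response score from 0 (no effect) to 10 (complete control), assigned by comparison with untreated controls. Treatment was applied at the 2-leaf stage, and plants stayed in the greenhouse for twelve to sixteen days before scoring.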

duck salad = assay: Test B flood test duck salad; assay type: in vivo, Heteranthera limosa
How it was run: as §2

morningglory = assay: Test B pre/postemergence morningglory; assay type: in vivo, Ipomoea hederacea
How it was run: as §1

pigweed = assay: Test B pre/postemergence pigweed; assay type: in vivo, Amaranthus retroflexus
How it was run: as §1

rice = assay: Test B flood test rice; assay type: in vivo, Oryza sativa
How it was run: as §2

sugar beet = assay: Test B pre/postemergence sugar beet; assay type: in vivo, Beta vulgaris
How it was run: as §1

blackgrass = assay: Test B pre/postemergence blackgrass; assay type: in vivo, Alopecurus myosuroides
How it was run: as §1

giant foxtail = assay: Test B pre/postemergence giant foxtail; assay type: in vivo, Setaria faberii
How it was run: as §1

cocklebur = assay: Test B pre/postemergence cocklebur; assay type: in vivo, Xanthium strumarium
How it was run: as §1

surinam grass = assay: Test B pre/postemergence surinam grass; assay type: in vivo, Brachiaria decumbens
How it was run: as §1

purple nutsedge = assay: Test B pre/postemergence purple nutsedge; assay type: in vivo, Cyperus rotundus
How it was run: as §1

corn = assay: Test B pre/postemergence corn; assay type: in vivo, Zea mays
How it was run: as §1

wild oat = assay: Test B pre/postemergence wild oat; assay type: in vivo, Avena fatua
How it was run: as §1

[1] = Preemergence, Rate 62 g/ha, scale of 0 to 10 where 0 is no effect and 10 is complete control
[2] = Preemergence, Rate 250 g/ha, scale of 0 to 10 where 0 is no effect and 10 is complete control
[3] = Preemergence, Rate 500 g/ha, scale of 0 to 10 where 0 is no effect and 10 is complete control
[4] = Rate 62 g/ha, Postemergence, scale of 0 to 10 where 0 is no effect and 10 is complete control
[5] = Rate 125 g/ha, Postemergence, scale 0 to 10
[6] = Rate 125 g/ha, Preemergence, scale of 0 to 10 where 0 is no effect and 10 is complete control
[7] = Rate 500 g/ha, Postemergence, scale 0 to 10, 0 no effect, 10 complete control
[8] = Rate 62 g/ha, headed Pre-emergence (flood test species), scale 0 to 10 (0 no effect, 10 complete control)
[9] = Rate 125 g/ha, Pre-emergence, flood test species, scale 0 to 10 where 0 is no effect and 10 is complete control
[10] = Rate 250 g/ha, Pre-emergence, flood-test species, scale 0 to 10, 0 is no effect, 10 is complete control
[11] = Rate 500 g/ha, Pre-emergence, flood test species, scale 0 to 10 (0 no effect, 10 complete control)

CON=C(Cn1c(=O)on(C(=O)N(c2ccc(F)cc2)C(C)C)c1=O)C(F)(F)F [Compound 227]
6: Sugarbeets plant response rating (sugar beet; [2])
2: Plant response rating, Soybean (soybean; [3]) | Redroot pigweed plant response rating (pigweed; [5]) | Sugarbeets plant response rating (sugar beet; [1]) | Blackgrass plant response rating (blackgrass; [1]) | Blackgrass plant response rating (blackgrass; [5]) | Plant response rating (0 to 10; 0 is no effect, 10 is complete control), Cocklebur (cocklebur; Rate 250 g/ha, Postemergence) | Plant response rating, B. signalgrass (surinam grass; [3]) | Wild oats plant response rating (wild oat; [7])
4: Plant response rating (0 to 10; 0 is no effect, 10 is complete control), Soybean (soybean; Rate 250 g/ha, Postemergence) | Morningglory plant response rating (morningglory; [4]) | Morningglory plant response rating (morningglory; [5])
0: Crabgrass plant response rating (crabgrass; [4]) | Crabgrass plant response rating (crabgrass; [5]) | Plant response rating (0 to 10; 0 is no effect, 10 is complete control), Crabgrass (crabgrass; Rate 250 g/ha, Postemergence) | Bedstraw plant response rating (bedstraw; [1]) | Bedstraw plant response rating (bedstraw; [6]) | Soybean plant response rating (soybean; [1]) | Soybean plant response rating (soybean; [2]) | Soybean plant response rating (soybean; [6]) | S. Flatsedge plant response rating (smallflower flatsedge; [8]) | S. Flatsedge plant response rating (smallflower flatsedge; [9]) | S. Flatsedge plant response rating (smallflower flatsedge; [10]) | S. Flatsedge plant response rating (smallflower flatsedge; [11]) | Ducksalad plant response rating (duck salad; [8]) | Ducksalad plant response rating (duck salad; [9]) | Ducksalad plant response rating (duck salad; [10]) | Ducksalad plant response rating (duck salad; [11]) | Morningglory plant response rating (morningglory; [1]) | Morningglory plant response rating (morningglory; [2]) | Plant response rating, Morningglory (morningglory; [3]) | Morningglory plant response rating (morningglory; [6]) | Redroot pigweed plant response rating (pigweed; [4]) | Rice plant response rating (rice; [8]) | Rice plant response rating (rice; [9]) | Rice plant response rating (rice; [10]) | Rice plant response rating (rice; [11]) | Sugarbeets plant response rating (sugar beet; [4]) | Sugarbeets plant response rating (sugar beet; [5]) | Blackgrass plant response rating (blackgrass; [4]) | Giant foxtail plant response rating (giant foxtail; [4]) | Giant foxtail plant response rating (giant foxtail; [5]) | Plant response rating (0 to 10; 0 is no effect, 10 is complete control), Giant foxtail (giant foxtail; Rate 250 g/ha, Postemergence) | Giant foxtail plant response rating (giant foxtail; [7]) | Cocklebur plant response rating (cocklebur; [1]) | Cocklebur plant response rating (cocklebur; [2]) | Plant response rating, Cocklebur (cocklebur; [3]) | Cocklebur plant response rating (cocklebur; [4]) | Cocklebur plant response rating (cocklebur; [5]) | Cocklebur plant response rating (cocklebur; [6]) | B. signalgrass plant response rating (surinam grass; [1]) | B. signalgrass plant response rating (surinam grass; Preemergence, Rate 250 g/ha, scale 0 to 10, 0 is no effect, 10 is complete control) | B. signalgrass plant response rating (surinam grass; [4]) | B. signalgrass plant response rating (surinam grass; Rate 125 g/ha, Postemergence, scale 0 (no effect) to 10 (complete control)) | B. signalgrass plant response rating (surinam grass; [6]) | Plant response rating (0 to 10; 0 is no effect, 10 is complete control), B. signalgrass (surinam grass; Rate 250 g/ha, Postemergence) | B. signalgrass plant response rating (surinam grass; [7]) | Nutsedge plant response rating (purple nutsedge; [1]) | Nutsedge plant response rating (purple nutsedge; [2]) | Nutsedge plant response rating (purple nutsedge; [4]) | Nutsedge plant response rating (purple nutsedge; [5]) | Nutsedge plant response rating (purple nutsedge; [6]) | Plant response rating (0 to 10; 0 is no effect, 10 is complete control), Nutsedge (purple nutsedge; Rate 250 g/ha, Postemergence) | Nutsedge plant response rating (purple nutsedge; [7]) | Corn plant response rating (corn; [1]) | Corn plant response rating (corn; [2]) | Plant response rating, Corn (corn; [3]) | Corn plant response rating (corn; [4]) | Corn plant response rating (corn; [5]) | Corn plant response rating (corn; [6]) | Plant response rating (0 to 10; 0 is no effect, 10 is complete control), Corn (corn; Rate 250 g/ha, Postemergence) | Corn plant response rating (corn; [7]) | Wild oats plant response rating (wild oat; [1]) | Wild oats plant response rating (wild oat; [4]) | Wild oats plant response rating (wild oat; [5]) | Wild oats plant response rating (wild oat; [6]) | Plant response rating (0 to 10; 0 is no effect, 10 is complete control), Wild oats (wild oat; Rate 250 g/ha, Postemergence)
5: Soybean plant response rating (soybean; [7]) | Redroot pigweed plant response rating (pigweed; [6]) | Plant response rating (0 to 10; 0 is no effect, 10 is complete control), Redroot pigweed (pigweed; Rate 250 g/ha, Postemergence) | Sugarbeets plant response rating (sugar beet; [7]) | Blackgrass plant response rating (blackgrass; [6])
7: Bedstraw plant response rating (bedstraw; [4]) | Redroot pigweed plant response rating (pigweed; [7]) | Plant response rating (0 to 10; 0 is no effect, 10 is complete control), Blackgrass (blackgrass; Rate 250 g/ha, Postemergence) | Blackgrass plant response rating (blackgrass; [7])
9: Giant foxtail plant response rating (giant foxtail; [1])
1: Crabgrass plant response rating (crabgrass; [1]) | Soybean plant response rating (soybean; [4])
8: Bedstraw plant response rating (bedstraw; [5]) | Plant response rating (0 to 10; 0 is no effect, 10 is complete control), Bedstraw (bedstraw; Rate 250 g/ha, Postemergence) | Bedstraw plant response rating (bedstraw; [7]) | Plant response rating (0 to 10; 0 is no effect, 10 is complete control), Morningglory (morningglory; Rate 250 g/ha, Postemergence) | Plant response rating, Sugarbeets (sugar beet; [3])
10: Crabgrass plant response rating (crabgrass; [2]) | Plant response rating, Crabgrass (crabgrass; [3]) | Crabgrass plant response rating (crabgrass; [6]) | Morningglory plant response rating (morningglory; [7]) | Redroot pigweed plant response rating (pigweed; [2]) | Plant response rating, Redroot pigweed (pigweed; [3]) | Blackgrass plant response rating (blackgrass; [2]) | Plant response rating, Blackgrass (blackgrass; [3]) | Giant foxtail plant response rating (giant foxtail; [2]) | Plant response rating, Giant foxtail (giant foxtail; [3]) | Giant foxtail plant response rating (giant foxtail; [6])
3: Crabgrass plant response rating (crabgrass; [7]) | Plant response rating, Bedstraw (bedstraw; [3]) | Soybean plant response rating (soybean; [5]) | Redroot pigweed plant response rating (pigweed; [1]) | Sugarbeets plant response rating (sugar beet; [6]) | Plant response rating (0 to 10; 0 is no effect, 10 is complete control), Sugarbeets (sugar beet; Rate 250 g/ha, Postemergence) | Cocklebur plant response rating (cocklebur; [7]) | Wild oats plant response rating (wild oat; [2]) | Plant response rating, Wild oats (wild oat; [3])
